Measurements reported in the NIST ThermoML archive (doi:10.1021/je900437b).
Numbers after ± are expanded uncertainties.

Assay: xn = mol fraction of the nth substance listed
Details: 101 kPa, Liquid; for speed of sound: Sing-around technique in a fixed-path interferometer; for mass density: Vibrating tube method

OCCN(CCO)CCO [triethanolamine] + NCCO
Details	mass density [kg/m3]	speed of sound [m/s]
298.15 K, x2 = 0	1120.82 ± 0.33	1610.5 ± 1.3
298.15 K, x2 = 0.1159	1116.38 ± 0.32	1625.2 ± 1.3
298.15 K, x2 = 0.2165	1111.37 ± 0.32	1637.8 ± 1.3
298.15 K, x2 = 0.3017	1106.52 ± 0.32	1648.4 ± 1.3
298.15 K, x2 = 0.3788	1101.52 ± 0.31	1658.1 ± 1.3
298.15 K, x2 = 0.4492	1096.35 ± 0.31	1666.8 ± 1.3
298.15 K, x2 = 0.5121	1091.14 ± 0.31	1674.3 ± 1.3
298.15 K, x2 = 0.6192	1080.56 ± 0.3	1686.4 ± 1.3
298.15 K, x2 = 0.7099	1069.5 ± 0.29	1695.9 ± 1.3
298.15 K, x2 = 0.7849	1058.49 ± 0.28	1702.7 ± 1.3
298.15 K, x2 = 0.8509	1046.99 ± 0.27	1708 ± 1.3
298.15 K, x2 = 0.907	1035.53 ± 0.26	1712.1 ± 1.3
298.15 K, x2 = 0.9561	1023.91 ± 0.25	1715.6 ± 1.3
303.15 K, x2 = 0	1118.06 ± 0.32	1600.5 ± 1.3
303.15 K, x2 = 0.1159	1113.44 ± 0.32	1615.2 ± 1.3
303.15 K, x2 = 0.2165	1108.35 ± 0.32	1628 ± 1.3
303.15 K, x2 = 0.3017	1103.4 ± 0.31	1638.7 ± 1.3
303.15 K, x2 = 0.3788	1098.32 ± 0.31	1648.3 ± 1.3
303.15 K, x2 = 0.4492	1093.05 ± 0.31	1656.7 ± 1.3
303.15 K, x2 = 0.5121	1087.76 ± 0.3	1663.9 ± 1.3
303.15 K, x2 = 0.6192	1077.07 ± 0.29	1675.3 ± 1.3
303.15 K, x2 = 0.7099	1065.88 ± 0.28	1683.4 ± 1.3
303.15 K, x2 = 0.7849	1054.74 ± 0.28	1689.1 ± 1.3
303.15 K, x2 = 0.8509	1043.15 ± 0.27	1693.5 ± 1.3
303.15 K, x2 = 0.907	1031.61 ± 0.26	1697.1 ± 1.3
303.15 K, x2 = 0.9561	1019.93 ± 0.24	1700.3 ± 1.3
308.15 K, x2 = 0	1115.26 ± 0.32	1595.5 ± 1.3
308.15 K, x2 = 0.1159	1110.42 ± 0.32	1610 ± 1.3
308.15 K, x2 = 0.2165	1105.26 ± 0.31	1622.1 ± 1.3
308.15 K, x2 = 0.3017	1100.25 ± 0.31	1632 ± 1.3
308.15 K, x2 = 0.3788	1095.08 ± 0.31	1640.8 ± 1.3
308.15 K, x2 = 0.4492	1089.75 ± 0.3	1648.6 ± 1.3
308.15 K, x2 = 0.5121	1084.39 ± 0.3	1655.1 ± 1.3
308.15 K, x2 = 0.6192	1073.56 ± 0.29	1665 ± 1.3
308.15 K, x2 = 0.7099	1062.26 ± 0.28	1671.8 ± 1.3
308.15 K, x2 = 0.7849	1051.01 ± 0.27	1676.7 ± 1.3
308.15 K, x2 = 0.8509	1039.31 ± 0.26	1680.6 ± 1.3
308.15 K, x2 = 0.907	1027.72 ± 0.25	1683.5 ± 1.3
308.15 K, x2 = 0.9561	1015.99 ± 0.24	1685.9 ± 1.3
313.15 K, x2 = 0	1112.4 ± 0.32	1587 ± 1.3
313.15 K, x2 = 0.1159	1107.47 ± 0.32	1601.8 ± 1.3
313.15 K, x2 = 0.2165	1102.16 ± 0.31	1613.9 ± 1.3
313.15 K, x2 = 0.3017	1097.05 ± 0.31	1623.6 ± 1.3
313.15 K, x2 = 0.3788	1091.8 ± 0.3	1631.9 ± 1.3
313.15 K, x2 = 0.4492	1086.4 ± 0.3	1639.2 ± 1.3
313.15 K, x2 = 0.5121	1080.99 ± 0.3	1645.2 ± 1.3
313.15 K, x2 = 0.6192	1070.01 ± 0.29	1654.6 ± 1.3
313.15 K, x2 = 0.7099	1058.62 ± 0.28	1661.1 ± 1.3
313.15 K, x2 = 0.7849	1047.27 ± 0.27	1665.1 ± 1.3
313.15 K, x2 = 0.8509	1035.49 ± 0.26	1667.6 ± 1.3
313.15 K, x2 = 0.907	1023.83 ± 0.25	1669 ± 1.3
313.15 K, x2 = 0.9561	1012.03 ± 0.24	1670 ± 1.3
318.15 K, x2 = 0	1109.6 ± 0.32	1578.8 ± 1.3
318.15 K, x2 = 0.1159	1104.53 ± 0.31	1593.8 ± 1.3
318.15 K, x2 = 0.2165	1099.15 ± 0.31	1605.9 ± 1.3
318.15 K, x2 = 0.3017	1093.95 ± 0.3	1614.8 ± 1.3
318.15 K, x2 = 0.3788	1088.58 ± 0.3	1622.6 ± 1.3
318.15 K, x2 = 0.4492	1083.06 ± 0.3	1629.4 ± 1.3
318.15 K, x2 = 0.5121	1077.57 ± 0.29	1635.1 ± 1.3
318.15 K, x2 = 0.6192	1066.47 ± 0.28	1643.9 ± 1.3
318.15 K, x2 = 0.7099	1054.94 ± 0.28	1649.5 ± 1.3
318.15 K, x2 = 0.7849	1043.54 ± 0.27	1652.8 ± 1.3
318.15 K, x2 = 0.8509	1031.7 ± 0.26	1654.6 ± 1.3
318.15 K, x2 = 0.907	1019.92 ± 0.25	1655.3 ± 1.3
318.15 K, x2 = 0.9561	1008.07 ± 0.24	1655.3 ± 1.3
323.15 K, x2 = 0	1106.78 ± 0.32	1570.6 ± 1.3
323.15 K, x2 = 0.1159	1101.56 ± 0.31	1585.9 ± 1.3
323.15 K, x2 = 0.2165	1096.03 ± 0.31	1597.2 ± 1.3
323.15 K, x2 = 0.3017	1090.73 ± 0.3	1605.9 ± 1.3
323.15 K, x2 = 0.3788	1085.31 ± 0.3	1613.5 ± 1.3
323.15 K, x2 = 0.4492	1079.76 ± 0.29	1620.1 ± 1.3
323.15 K, x2 = 0.5121	1074.18 ± 0.29	1625.6 ± 1.3
323.15 K, x2 = 0.6192	1062.92 ± 0.28	1633.2 ± 1.3
323.15 K, x2 = 0.7099	1051.26 ± 0.27	1637.5 ± 1.3
323.15 K, x2 = 0.7849	1039.74 ± 0.26	1639.8 ± 1.3
323.15 K, x2 = 0.8509	1027.82 ± 0.25	1641.3 ± 1.3
323.15 K, x2 = 0.907	1016 ± 0.24	1641.8 ± 1.3
323.15 K, x2 = 0.9561	1004.09 ± 0.23	1641 ± 1.3
